Measured values published in patent US20100104661A1, “DISCONTINUOUS METHODS OF TREATING CANCER” (priority 2006, published 2010).

How the values were obtained:
[1] = test system: NSCLC; conditions: 100 mg/m^2 in patients previously treated with chemotherapy; cited from earlier work
[2] = test system: 22Rv1 prostate tumor xenografts; assay: 22Rv1 prostate tumor xenograft, first experiment (lonafarnib 3.5 days on/3.5 days off, docetaxel once weekly); type: in vivo, male athymic nude mice; conditions: single-agent docetaxel 20 mpk i.p. once weekly; after 3 weeks (21 days)
Description: (§1) Intermittent dosing of lonafarnib at 60 mpk BID around the administration of docetaxel was tested in two experiments using the 22Rv1 androgen-independent prostate cancer xenograft model. In both experiments 22Rv1 prostate tumor xenografts were grown in male athymic nude mice. When tumor volumes were approximately 100 mm^3, the animals were randomized (n=10 per treatment group) for grouping. […] In addition, tumor regressions were observed when intermittent lonafarnib was combined with docetaxel.
In the first experiment (see FIG. 1) male mice (n=10 per treatment group) bearing 22Rv1 tumor xenografts were treated with lonafarnib administered at either 30 mpk BID continuously or 60 mpk BID intermittently (3.5 days on/3.5 days off). Docetaxel was administered at 20 mpk once weekly after the fourth dose of lonafarnib. Tumor volumes were measured twice weekly. After 3 weeks (21 days) of treatment, single-agent docetaxel inhibited 22Rv1 tumor growth by 66%. Continuous treatment with single-agent lonafarnib at 30 mpk BID inhibited tumor growth by 85% and intermittent dosing of single-agent lonafarnib at 60 mpk BID inhibited tumor growth by 80%. When combined with weekly administration of docetaxel, continuous treatment with 30 mpk BID lonafarnib caused 22Rv1 tumors to regress by 23%. However, when combined with docetaxel, intermittent lonafarnib (60 mpk BID) caused the tumors to regress by 46%. […]

[3] = test system: 22Rv1 prostate tumor xenografts; assay: 22Rv1 prostate tumor xenograft, second experiment (lonafarnib 5 days on/5 days off, docetaxel once every 10 days); type: in vivo, male athymic nude mice; conditions: single-agent docetaxel 20 mpk i.p. once every 10 days; after 24 days
Description: as §1
The second experiment (see FIG. 3) was also performed with male mice (n=10 per treatment group) bearing 22Rv1 prostate tumor xenografts that were approximately 100 mm^3 in volume. Lonafarnib was administered at 30 mpk BID continuously or 60 mpk BID intermittently (5 days on/5 days off). Docetaxel was administered at 20 mpk once every 10 days after the second dose of lonafarnib. After 24 days of treatment, single-agent docetaxel inhibited 22Rv1 tumor growth by 78%. Continuous treatment with single-agent lonafarnib at 30 mpk BID inhibited tumor growth by 68% and intermittent dosing of single-agent lonafarnib at 60 mpk BID inhibited tumor growth by 78%. When combined with docetaxel, continuous treatment with 30 mpk BID lonafarnib caused 22Rv1 tumors to regress by 10%. However, when combined with docetaxel, intermittent lonafarnib (60 mpk BID) caused the tumors to regress by 37%. […]

[4] = test system: node-positive breast cancer; conditions: adjuvant, sequentially to doxorubicin-containing chemotherapy; total population of patients with receptor-positive and receptor-negative tumors; cited from earlier work
[5] = test system: AIDS-related Kaposi's sarcoma; conditions: 135 mg/m^2 every 3 weeks versus 100 mg/m^2 every 2 weeks; cited from earlier work

CC(=O)O[C@@]12CO[C@@H]1C[C@H](O)[C@@]1(C)C(=O)[C@H](O)C3=C(C)[C@@H](OC(=O)[C@H](O)[C@@H](NC(=O)OC(C)(C)C)c4ccccc4)C[C@@](O)([C@@H](OC(=O)c4ccccc4)[C@H]21)C3(C)C [docetaxel]
toxicity at higher dose [1]: associated with increased hematologic toxicity, infection, and treatment related mortality
inhibition of 22Rv1 tumor growth [2]: 66%
inhibition of 22Rv1 tumor growth [3]: 78%

CC(=O)O[C@H]1C(=O)[C@@]2(C)[C@H]([C@H](OC(=O)c3ccccc3)[C@]3(O)C[C@H](OC(=O)[C@H](O)[C@@H](NC(=O)c4ccccc4)c4ccccc4)C(C)=C1C3(C)C)[C@]1(OC(C)=O)CO[C@@H]1C[C@@H]2O [Taxol, paclitaxel]
effect on disease-free and overall survival [4]: overall favorable effect on disease-free and overall survival
toxicity of dosing schedules [5]: more toxic than the latter
